Test results reported in US20210038688A1, “ICAM-1 MARKER AND APPLICATION THEREOF” (Shanghai Institute of Nutrition and Health, Chinese Academy …, priority 2018, published 2021).

Columns and labels:
[1] = tested on: ICAM-1−/− adipose stem cells; assay: in vitro adipogenic differentiation of adipose stem cells derived from ICAM-1−/− mice (oil red staining, Western blot, Real time PCR); type: cell-based
Protocol: (§1) FIG. 6E and FIG. 6F respectively show the mRNA levels of Pparg (FIG. 6E) and Fabp4 (FIG. 6F) after adipogenic differentiation of WT and ICAM-1^−/− mice-derived adipose stem cells under […] or DMSO treatment, using Real time PCR.
(§2) Cultivation of adipose stromal cells The sorted CD31^−CD45^−Sca-1^+PDGFR-α^+ adipose stromal cells as well as CD31^−CD45^−Sca-[…]-1^− and other components were cultured in DMEM low-sugar medium supplemented with 10% FBS alone or in combination. In some experiments, adherent adipose mononuclear cells were directly cultured in DMEM low-sugar medium supplemented with 10% FBS, and immune cells and vascular endothelial cells were removed during the medium exchange and passage steps to obtain simple adipose stromal cells.
(§3) For preparing differentiation medium, 0.5 mM 3-isobutyl-1-methylxanthine (IBMX), 50 μM indomethacin, 10 μg/ml insulin and 0.5 μM dexamethasone were added to 10% FBS of DMEM high glucose medium. When the adipose stromal cells grew to 100% confluence, the differentiation medium was changed and the medium was changed every two days, and it was taken about 5 days until differentiation was completed.
(§4) Rho and ROCK can negatively regulate adipogenic differentiation in a cytoskeleton-dependent or insulin signal-dependent manner, and our RNA-seq data also supports the role of Rho GTPase in adipose differentiation. In order to test whether Rho and ROCK are involved in the inhibitory effect of ICAM-1 on adipogenic differentiation of adipose stem cells, we used ROCK inhibitor Y-27632 to treat adipose stem cells respectively. […] Therefore, ICAM-1 inhibits the adipogenic differentiation of adipose stem cells through the Rho-ROCK pathway.
(§5) In order to verify whether Rho GTPase activity can reverse the excessive adipogenic differentiation caused by ICAM-1 deletion, we used the Rho agonist Rho activator II (RA2), which can constitutively activate RhoGTPase. […] It is important that the difference in the expression of adipogenic differentiation genes between wild-type and ICAM-1^−/− cells is eliminated by Rho

[2] = tested on: wild-type adipose stem cells; assay: in vitro adipogenic differentiation of adipose stem cells derived from WT mice (oil red staining, Western blot, Real time PCR); type: cell-based
Protocol: as §1, §2, §3, §4, §5

[3] = tested on: human adipose stem cells; assay: adipogenic differentiation induction of human primary adipose stromal cells (ICAM-1 siRNA knockdown, RA2); type: cell-based; conditions: RA2 treatment during differentiation; FIG. 7H-J
Protocol: FIGS. 7F-7G respectively show the adipogenic differentiation-related gene expression and Rho GTP activity of adipose stem cells during adipogenic differentiation with the expression of ICAM-1 interfered.
FIGS. 7H-7J respectively show the expressions of adipogenic differentiation-related genes (PPARG, CEBPA, FABP4) in adipose stem cells observed with RA2 activated Rho after interfering with ICAM-1 expression.
as §3
First, the expression content of ICAM-1 in human adipose tissue was analyzed. Currently, there is no recognized characteristic molecule of human preadipocytes. […] These ICAM-1^+ cells, like adipose tissue in mice, are mainly located around blood vessels (FIG. 7B). To test the regulatory effect of ICAM-1 on human adipose stem cells, we isolated human primary adipose stromal cells for adipogenic differentiation induction. […]

[4] = tested on: ICAM-1−/− mice; assay: local RA2 injection into right inguinal fat pad of ICAM-1−/− mice with high-fat diet induced obesity; type: in vivo; conditions: RA2 locally into right inguinal fat pad, 10 weeks
Protocol: (§6) FIG. 6L-6N respectively show the visual observation result (FIG. 6L), adipose tissue observation result (FIG. 6M) and statistical analysis of changes in subcutaneous adipose tissue weight (6N) in the right subcutaneous adipose tissue of WT mice and ICAM-1^−/− mice that were given a high-fat diet induced obesity is injected with RA2 (every 2 days, […]).
(§7) This asymmetry is not observed in RA2-treated WT mice and PBS-treated mice (FIG. 6L).

[5] = tested on: WT mice; assay: local RA2 injection into right inguinal fat pad of WT mice with high-fat diet induced obesity; type: in vivo; conditions: RA2 locally into right inguinal fat pad, 10 weeks
Protocol: as §6, §7

| Compound | adipogenic differentiation (oil red staining) ([1]; 10 μM Y-27632 compared with DMSO-treated group, ICAM-1−/− cells, FIG. 6C) | expression level of Perilipin A protein (Western blot) ([1]; Y-27632 vs DMSO, ICAM-1−/− cells after adipogenic differentiation) | expression of adipogenic differentiation-related proteins and genes (Perilipin A, Pparg, Fabp4) ([1]; inhibiting ROCK (Y-27632 vs DMSO), ICAM-1−/− cells, FIG. 6D-F) | adipogenic differentiation (oil red staining) ([2]; 10 μM Y-27632 compared with DMSO-treated group, wild-type cells, FIG. 6C) | expression level of Perilipin A protein (Western blot) ([2]; Y-27632 vs DMSO, wild-type cells after adipogenic differentiation) | expression of adipogenic differentiation-related proteins and genes (Perilipin A, Pparg, Fabp4) ([2]; inhibiting ROCK (Y-27632 vs DMSO), wild-type cells, FIG. 6D-F) | enhancement of adipogenic differentiation of ICAM-1 knock-down cells (PPARG, CEBPA, FABP4 expression) [3] | adipogenic differentiation ability (oil red staining) ([1]; RA2 added during in vitro differentiation, ICAM-1−/− cells, FIG. 6G) | difference in the expression of adipogenic differentiation genes between wild-type and ICAM-1−/− cells ([1]; Rho GTPase activation by RA2, FIG. 6H-K) | adipogenic differentiation genes Pparg, Cebpa, Fabp4, Plin1 (mRNA, Real time PCR) ([1]; Rho GTPase activation by RA2, ICAM-1−/− precursor cells, FIG. 6H-K) | excessive adipogenic differentiation (inguinal fat pads, injected right vs left side) ([4]; FIG. 6L) | fat weight (subcutaneous adipose tissue) ([4]; every 2 days, FIG. 6M-N) | adipogenic differentiation ability (oil red staining) ([2]; RA2 added during in vitro differentiation, wild-type cells, FIG. 6G) | adipogenic differentiation genes Pparg, Cebpa, Fabp4, Plin1 (mRNA, Real time PCR) ([2]; Rho GTPase activation by RA2, wild-type cells, FIG. 6H-K) | asymmetry of inguinal fat pads on both sides ([5]; FIG. 6L) | fat weight (subcutaneous adipose tissue) ([5]; every 2 days, FIG. 6M-N) |
| --- | --- | --- | --- | --- | --- | --- | --- | --- | --- | --- | --- | --- | --- | --- | --- | --- |
| C[C@@H](N)[C@H]1CC[C@H](C(=O)Nc2ccncc2)CC1 [Y-27632] | no obvious effect | little effect | not obvious | significantly accelerate | significantly increase | significantly increase |  |  |  |  |  |  |  |  |  |  |
| Rho activator II [RA2] |  |  |  |  |  |  | eliminated | significantly inhibited | eliminated | extensive reduction | weakened | significantly reduce | not obvious | only Pparg and Fabp4 are significantly changed | not observed | not |
